According to patent publication US8178688B2, “Benzamidine derivatives, process for the preparation thereof and pharmaceutical composition comprising the same” (Dong Wha Pharmaceutical Co., Ltd., priority 2004, dated 2012):
Marks after values point to notes of the source that are not given here.

Legend:
ovariectomized ddY mouse = assay: Therapeutic effect in the ovariectomized osteoporetic mouse model (trabecular bone volume of the femur); format: in vivo, ddY mice; conditions: 50 mg/kg/day oral gavage for 4 weeks from 4 weeks after ovariectomy, salts (methansulfonic acid or HCl); for change in vivo at 50 mg/kg: Mus musculus, 672 h, read-out: Changes on TBV (% changes vs vehicle control)
Summary of the method: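 Female ddY mice, bilaterally ovariectomized; benzamidine salts (methanesulfonate or HCl) given orally at 50 mg/kg/day for 4 weeks, starting 4 weeks post-surgery. Femoral trabecular bone volume (%) measured histomorphometrically on H&E sections of trochlea epiphyseal region; reported as percentage change versus vehicle control.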

[1] = system: rat models subjected to rib fracture; assay: Effect of promoting fracture healing in rib fracture-induced rat model (callus volume, callus osteoid volume); format: in vivo, SD rats; conditions: for Changes on callus volume (mm^3): 200 mg/kg oral once a day for 2 weeks from day 2 of surgery, 8th and 9th ribs, vehicle control 37.22 ± 8.23; for Changes on callus osteoid volume (OV/callus, %): 200 mg/kg oral once a day for 2 weeks, 8th rib, vehicle control 35.88 ± 5.06
Description: The benzamidine compounds were assayed for therapeutic effect on bone fracture in rat models subjected to rib fracture. Benzamidine derivates are dosed from 2 days after operation for 2 weeks, and the changes on the volume and histology of callus were observed.
A total of 54 SD rats (8 weeks old upon receipt, Jung Ang Lab. Animal Co., Korea) were used. While being housed at a density of three to a plastic cage, the experimental animals were kept in a breeding room under controlled temperature (20-25° C.) and humidity (30-35%). Under light-dark cycles of 12 hours, the rats were allowed to have free access to feedstuff and tap water.
200 mg of benzamidine compounds (Methansulfonic acid or Hydrochloride) were completely dissolved in 5 ml of sterilized distilled water. The benzamidine derivatives in the solutions was orally administered at doses of 200 mg per kg of body weight once a day for 2 weeks from day 2 of the surgery.
8th and 9th rib of each animal was exposed by general operation under ketamine HCl and xylazine HCl anesthesia, and the exposed ribs were crossly dissected using surgical scissors. After rib-fracture, surgical wounds were closed with general skin suture.
8th and 9th ribs of each animal were separated at sacrifice and then the long axis and short axis of callus were calculated as mm units. The volume of callus was calculated as following Equation 2. Callus volume(mm^3)=(a×b^2)/2 Equation 2 • a: long diameter of bony callus • b: short diameter of bony callus
The 8th rib including fracture sites of each rat was separated and fixed in 10% neutral buffered formalin, and then decalcified in decalcifying solution (24.4% formic acid, and 0.5N sodium hydroxide) for 5 days (mixed decalcifying solution was exchanges once a day for 5 days). After decalcification, the rib was embedded in paraffin, sectioned (3˜4 μm) and stained with hematoxylin-eosin or Masson's trichrome for composition of callus observation.
Osteloid volume (OV/callus) in callus regions of prepared histological specimens were detected as % levels using automated image analysis (analySIS Image Processing; SIS, Germany) under microscopy.

[2] = system: mouse models of ovalbumin-induced asthma; assay: Therapeutic effect in mouse model of asthma induced with ovalbumin (lung weight, total leukocytes in blood and BALF); format: in vivo, C57BL/6 mice; conditions: for Changes on the lung weight, Relative (%) / Total leukocytes in peripheral blood (×10^3/1 mm^3) / Total leukocytes in BALF (×10^5/1 ml): 200 mg/kg oral once a day; for Changes on the lung weight, Relative (%): % of body weight, vehicle control 0.780 ± 0.103, sham 0.694 ± 0.049; for Total leukocytes in peripheral blood (×10^3/1 mm^3): vehicle control 14.49 ± 0.88, sham 10.27 ± 0.93; for Total leukocytes in BALF (×10^5/1 ml): vehicle control 75.68 ± 4.67, sham 51.75 ± 2.15
Description: The benzamidine compounds were assated for therapeutic effect on allergic inflammation in mouse models of ovalbumin-induced asthma. Starting on the day of immunization the benzamidine compounds were dosed for 17 consecutive days. The experimental animals were re-exposed to ovalbumin 14 days after the sensitization and then sacrificed 3 days after the re-exposure. Changes in lung weight, cellular components of peripheral blood and bronchoalveolar lavage fluid, and lung histopathology were observed.
A total of 110 female C57BL/6 mice (7-week-old, SLC, Japan) were adapted to a laboratory environment for 6 days before being used in earnest experiments. While being housed at a densirt of five in a plastic cage, the experimental animals were breed in a breeding room with controlled temperature (20-25° C.) and humidity (30-35%). Under light-dark cycles of 12 hours, mice were allowed to have free access to feedstuff and tap water. While asthma was induced in 100 mice by ovalbumin, 10 mice were used as a non-treated group.
200 mg of benzamidine compounds (Methansulfonic acid or Hydrochloride) were completely dissolved in 5 ml of sterilized distilled water. The benzamidine compound in the solutions was orally administered at doses of 200 mg per kg of body weight once a day from the day of the sensitization with ovalbumin. The control group was administered with equal volumes of sterilized distilled water in the same manner.
A solution of 200 μg of ovalbumin (Grade VI; Sigma, st. Louis, Mo., USA) and 180 mg of aluminium hydroxide (Al(OH)3, dried powder gel; Aldrich, Milwaukee, USA) in 4 ml of physiological saline was allowed to stand at 4° C. overnight and was administered to the experimental animals (200 μl, abdominal injection) for sensitization. As for the non-treated group, a solution of only aluminium hydroxide in saline was injected. 15 days after sensitization, a 1.5% ovalbumin solution was sprayed in air using a nebulizer, followed by exposing the experimental animals to the spray for 10 min to induce asthma therein. The non-treated group was exposed only to saline in the same manner. All the experimental animals were sacrificed 3 days after the exposure.
On the final day of experiment, the lungs were separated form adjacent organs. The removed lungs were weight among individual animals, the relative weight of the lungs was calculated as a percentage of body weight using the following Equation 3. Relative weight of Lung(%)=(Absolute lung weight/Body weight)×100 Equation 3
On the final day of experiment, all the experimental animals were etherized and underwent laparotomy to expose the abdominal vena cava, from which 1 ml of blood was the taken. Using a hemocytometer, a blood sample was measured for total leukocyte counts in a ×10^3/1 mm^3 units.
On the final day of experiment, secretions present in bronchi and alveola were examined for cyrological constitution. After veing etherized, the experimental animals were operated to open the cervical region and the thorax. The jugular vein was allowed to bleed, followed by endotracheal intubation. 3 ml of phosphate buffered saline was injected twice through the tube and the thorax was massaged for 30 sec to obtain cell suspension from the lungs. Using a hemocytometer, a […] was measured for total leukocyte counts in a ×10^5/1 ml units.

[3] = 200 mg/kg oral once a day from sensitization, vehicle control 0.134 ± 0.012, sham 0.110 ± 0.009

Structure (SMILES)	change in vivo at 50 mg/kg (ovariectomized ddY mouse) [%]	Changes on callus volume (mm^3) [1]	Changes on callus osteoid volume (OV/callus, %) [1] [%]	Changes on the lung weight, Absolute [2, 3] [g]	Changes on the lung weight, Relative (%) [2] [%]	Total leukocytes in peripheral blood (×10^3/1 mm^3) [2]	Total leukocytes in BALF (×10^5/1 ml) [2]	Changes on TBV (% changes vs vehicle control) (ovariectomized ddY mouse) [%]	Changes on the lung weight, Absolute (g) [2, 3]
CCCN(CCC)c1nc(-c2ccc(OCCCCCOc3ccc(C(=N)NO)cc3)cc2)c(CC)s1 [Example 138, N-hydroxy-4-(5-[4-(2-dipropylamino-5-ethyl-1,3-thiazol-4-yl)phenoxy]pentoxy)-benzamidine]	164	27.34 ± 5.46* mm^3	53.83 ± 7.84	0.113 ± 0.011	0.691 ± 0.065	13.60 ± 0.83 # ×10^3/1 mm^3	68.83 ± 5.29 ## ×10^5/1 ml	–	–
Cc1sc(-c2cccnc2)nc1-c1ccc(OCCCCCOc2ccc(C(=N)NO)cc2)cc1 [Example 13, N-hydroxy-4-(5-[4-(5-methyl-2-pyridin-3-yl-1,3-thiazol-4-yl)phenoxy]pentoxy)-benzamidine]	82	23.15 ± 7.85* mm^3	43.19 ± 4.47	0.108 ± 0.009	0.695 ± 0.075	14.06 ± 1.07 ×10^3/1 mm^3	72.75 ± 4.88 ×10^5/1 ml	–	–
CC(C)c1nc(-c2ccc(OCCCCCOc3ccc(C(=N)NO)cc3)cc2)c(CC2CCCC2)s1 [Example 47, N-hydroxy-4-(5-[4-(5-cyclopentylnnethyl-2-isopropyl-1,3-thiazol-4-yl)phenoxy]pentoxy)-benzamidine]	–	27.56 ± 6.94** mm^3	45.69 ± 7.07	–	0.706 ± 0.059	12.55 ± 1.35 # ×10^3/1 mm^3	62.40 ± 7.56 # ×10^5/1 ml	139.8	0.122 ± 0.010 ## g
